# “Also recorded” adds a separate entry of the source.
# B1: galcanezumab (antibody, chains of the INN, looked up, V domains shown)
# VH: QVQLVQSGAEVKKPGSSVKVSCKASGYTFGNYWMQWVRQAPGQGLEWMGAIYEGTGKTVYIQKFADRVTITADKSTSTAYMELSSLRSEDTAVYYCARLSDYVSGFGYWGQGTTVTVSS
# VL: DIQMTQSPSSLSASVGDRVTITCRASKDISKYLNWYQQKPGKAPKLLIYYTSGYHSGVPSRFSGSGSGTDFTLTISSLQPEDFATYYCQQGDALPPTFGGGTKVEIK
# notes: long-acting CGRP antagonist antibody that targets the CGRP ligand
# B2: erenumab (antibody, chains of the INN, looked up, V domains shown)
# VH: QVQLVESGGGVVQPGRSLRLSCAASGFTFSSFGMHWVRQAPGKGLEWVAVISFDGSIKYSVDSVKGRFTISRDNSKNTLFLQMNSLRAEDTAVYYCARDRLNYYDSSGYYHYKYYGMAVWGQGTTVTVSS
# VL: QSVLTQPPSVSAAPGQKVTISCSGSSSNIGNNYVSWYQQLPGTAPKLLIYDNNKRPSGIPDRFSGSKSGTSTTLGITGLQTGDEADYYCGTWDSRLSAVVFGGGTKLTVL
# How the values were obtained:
# [1] = Phase 1b trial NCT04179474, safety and tolerability (adverse events), erenumab arm (Part 1); parameters: species or system human; conditions: in vivo
# Protocol: (§1) A two-part, multi-center, open-label, phase 1b trial (NCT04179474) in 40 adults (aged 18-50 years) diagnosed with migraine was conducted to evaluate the impact of erenumab or galcanezumab on the pharmacokinetics (PK), safety, and tolerability of ubrogepant in patients with migraine.
# (§2) This open-label, multicenter trial enrolled adults diagnosed for greater than or equal to one year with migraine not on preventive treatment. Participants were assigned to an erenumab arm (Part 1) or a galcanezumab arm (Part 2). In each arm, participants received ubrogepant 100 mg on day 1 (without an antibody). On day 8, participants received the assigned monoclonal antibody: single subcutaneous (SC) erenumab 140 mg injection (Part 1) or galcanezumab 240 mg (2 SC 120 mg injections) (Part 2). Ubrogepant 100 mg was administered once daily on days 12-15. Participants were followed for 30 days.
# (§3) Of 40 enrolled participants, 20 were included in part 1 (n=20 ubrogepant, n=19 erenumab, and n=19 co-administered ubrogepant and erenumab) and 20 were included in part 2 (n=20 ubrogepant, n=20 galcanezumab, and n=19 co-administered ubrogepant and galcanezumab).
# (§4) PK parameters, derived from plasma ubrogepant concentrations in blood collected at prespecified time points over 24 hours post-dose on days 1 and 12, included area under the curve from time 0 to time t (AUC0-t) or to infinity (AUC0-∞); peak plasma concentration (Cmax), time to Cmax (Tmax); and apparent terminal half life (t1/2). Safety outcomes included incidence of adverse events (AEs; daily and through follow-up), and laboratory values, vital signs, and electrocardiogram (ECG) results (at prespecified timepoints pre- and post-dose). Log-transformed Cmax, AUC0-t, and […] , for ubrogepant with and without erenumab or galcanezumab with 90% CI were constructed.
# [2] = Phase 1b trial NCT04179474, plasma ubrogepant pharmacokinetics, erenumab arm (Part 1); format: in vivo, human; conditions: for half-life: read-out: t1/2, mean (converted)
# Protocol: as §1, §2, §3, §4
# [3] = Phase 1b trial NCT04179474, safety and tolerability (adverse events), galcanezumab arm (Part 2); parameters: species or system human; conditions: in vivo
# Protocol: as §1, §2, §3, §4
# [4] = Phase 1b trial NCT04179474, plasma ubrogepant pharmacokinetics, galcanezumab arm (Part 2); format: in vivo, human; conditions: for AUC(0-t): 100 mg
# Protocol: as §1, §2
# Of 40 enrolled participants, 20 were included in part 1 (n=20 ubrogepant, n=19 erenumab, and n=19 co-administered ubrogepant and erenumab) and 20 were included in part 2 (n=20 ubrogepant, n=20 galcanezumab, […]).
# as §4
# CYP enzymes = conditions: general statement, no test described; cited from earlier work
# [5] = erenumab arm, ubrogepant 100 mg alone, day 1, n = 20
# [6] = galcanezumab arm, ubrogepant 100 mg alone, day 1, n = 20
molecule,measurement,setting,value
"C[C@@H]1[C@H](c2ccccc2)C[C@H](NC(=O)c2cnc3c(c2)C[C@@]2(C3)C(=O)Nc3ncccc32)C(=O)N1CC(F)(F)F [Ubrogepant, ubrogepant]","Abdominal Pain, participants",[1]; human,0 participants
same,"Constipation, participants",[1]; human,0 participants
same,"Flatulence, participants",[1]; human,0 participants
same,"Headache, participants",[1]; human,1 participants
same,"Headache, participants (%)",[1]; human,(5.0) %
same,"Nasopharyngitis, participants",[1]; human,1 participants
same,"Nasopharyngitis, participants (%)",[1]; human,(5.0) %
same,"Nausea, participants",[1]; human,0 participants
same,"Somnolence, participants",[1]; human,1 participants
same,"Somnolence, participants (%)",[1]; human,(5.0) %
same,"TEAEs, participants (%)",[1]; human,(35.0) %
same,"Treatment Related AEs, participants (%)",[1]; human,(10.0) %
same,"Upper Abdominal Pain, participants",[1]; human,0 participants
same,safety concerns on co-administration,[1],no safety concerns were identified
same,"CL/F, mean",[2]; [5],57.4 L/h
same,"t1/2, mean",[2]; [5],4.6 h
same,AUC(0-t),"[2]; human, plasma, oral, erenumab arm, ubrogepant 100 mg alone, day 1, read-out: AUC0-t, geometric LSM",1780 ng·h/mL
same,AUC(0-inf),"[2]; human, plasma, oral, erenumab arm, ubrogepant 100 mg alone, day 1, read-out: AUC0-∞, geometric LSM",1810 ng·h/mL
same,Cmax,"[2]; human, plasma, oral, erenumab arm, ubrogepant 100 mg alone, day 1, read-out: Cmax, geometric LSM",431 ng/mL
same,AUC(0-t),"[2]; human, plasma, other: extravascular administration, erenumab arm, ubrogepant 100 mg alone, day 1, n = 20, read-out: AUC0-t, mean",1840 ng·h/mL
same,AUC(0-inf),"[2]; human, plasma, other: extravascular administration, erenumab arm, ubrogepant 100 mg alone, day 1, n = 20, read-out: AUC0-∞, mean",1880 ng·h/mL
same,Cmax,"[2]; human, plasma, other: extravascular administration, erenumab arm, ubrogepant 100 mg alone, day 1, n = 20, read-out: Cmax, mean",459 ng/mL
same,Vd/F,"[2]; human, plasma, other: extravascular administration, erenumab arm, ubrogepant 100 mg alone, day 1, n = 20, read-out: VZ/F, mean",437 L
same,half-life,"[2]; human, plasma, other: extravascular administration, erenumab arm, ubrogepant 100 mg alone, day 1, n = 20",5.3 h
same,half-life,"[2]; human, plasma, erenumab arm, ubrogepant 100 mg day 12, after SC erenumab 140 mg on day 8, n = 19",5.3 h
same,Tmax,"[2]; human, plasma, erenumab arm, ubrogepant 100 mg day 12, after SC erenumab 140 mg on day 8, n = 19, read-out: tmax, median",1.5 h
same,"change in ubrogepant PK (Cmax, AUC0-t, AUC0-∞) after coadministration with erenumab versus alone","[2]; ubrogepant 100 mg, erenumab 140 mg SC",no significant change; also recorded: minimally elevated; also recorded: unchanged
same,"Abdominal Discomfort, participants",[3]; human,0 participants
same,"Dizziness, participants",[3]; human,0 participants
same,"Headache, participants",[3]; human,0 participants
same,"Hiccups, participants",[3]; human,0 participants
same,"TEAEs, participants (%)",[3]; human,(10.0) %
same,"Upper Abdominal Pain, participants",[3]; human,0 participants
same,safety concerns on co-administration,[3],no safety concerns were identified
same,"AUC0-∞, mean",[4]; [6],1732.2 ng·h/mL
same,"CL/F, mean",[4]; [6],72.9 L/h
same,"Cmax, mean",[4]; [6],415.3 ng/mL
same,"t1/2, mean",[4]; [6],4.6 h
same,AUC(0-t),"[4]; human, plasma, oral, galcanezumab arm, ubrogepant 100 mg alone, day 1, n = 20, read-out: AUC0-t, mean",1700 ng·h/mL
same,AUC(0-t),"[4]; human, plasma, oral, galcanezumab arm, ubrogepant 100 mg alone, day 1, read-out: AUC0-t, geometric LSM",1510 ng·h/mL
same,Vd/F,"[4]; human, plasma, oral, galcanezumab arm, ubrogepant 100 mg alone, day 1, n = 20, read-out: VZ/F, mean",569 L
same,AUC(0-inf),"[4]; human, plasma, oral, galcanezumab arm, ubrogepant 100 mg alone, day 1, read-out: AUC0-∞, geometric LSM",1540 ng·h/mL
same,Cmax,"[4]; human, plasma, oral, galcanezumab arm, ubrogepant 100 mg alone, day 1, read-out: Cmax, geometric LSM",359 ng/mL
same,Tmax,"[4]; human, plasma, oral, galcanezumab arm, ubrogepant 100 mg day 12, after SC galcanezumab 240 mg on day 8, n = 20",1.5 h
same,half-life,"[4]; human, plasma, oral, galcanezumab arm, ubrogepant 100 mg day 12, after SC galcanezumab 240 mg on day 8, n = 20, read-out: t1/2, mean (converted)",5 h
same,"change in ubrogepant PK (Cmax, AUC0-t, AUC0-28) after coadministration with galcanezumab versus alone","[4]; ubrogepant 100 mg, galcanezumab 240 mg SC",no significant change; also recorded: unchanged
same,change in ubrogepant Cmax with galcanezumab coadministration,[4]; vs ubrogepant alone,unchanged
same,increase in ubrogepant AUC0-t with galcanezumab coadministration,[4]; vs ubrogepant alone,5%
same,increase in ubrogepant AUC0-∞ with galcanezumab coadministration,[4]; vs ubrogepant alone,5%
B1,"Abdominal Discomfort, participants",[3],0 participants
same,"Dizziness, participants",[3],0 participants
same,"Headache, participants",[3],3 participants
same,"Headache, participants (%)",[3],(15.0) %
same,"Hiccups, participants",[3],1 participants
same,"Hiccups, participants (%)",[3],(5.0) %
same,"TEAEs, participants (%)",[3],(15.0) %
same,"Treatment-related AEs, participants (%)",[3],(15.0) %
same,"Upper Abdominal Pain, participants",[3],0 participants
same,metabolism by CYP enzymes,CYP enzymes,not metabolized by CYP enzymes
B2,"Abdominal Pain, participants",[1],0 participants
same,"Constipation, participants",[1],0 participants
same,"Flatulence, participants",[1],1 participants
same,"Flatulence, participants (%)",[1],(5.3) %
same,"Headache, participants",[1],6 participants
same,"Headache, participants (%)",[1],(31.6) %
same,"Nasopharyngitis, participants",[1],0 participants
same,"Nausea, participants",[1],0 participants
same,"Somnolence, participants",[1],0 participants
same,"TEAEs, participants (%)",[1],(42.1) %
same,"Treatment Related AEs, participants (%)",[1],(36.8) %
same,"Upper Abdominal Pain, participants",[1],0 participants
same,metabolism by CYP enzymes,CYP enzymes,not metabolized by CYP enzymes

# Reference: US20220340650A1, “COMBINATION THERAPY WITH CGRP ANTAGONISTS” (Allergan Pharmaceuticals International Limited, priority 2019, published 2022)
